Columns and labels:
[1] = molecular target: T1, HDAC1 (Homo sapiens, UniProt Q13547); test: HDAC1 enzyme inhibition assay (single point and 10-dose IC50, Reaction Biology); assay type: biochemical
T1 construct: purchased Reaction Biology corporation (contract assay)
Protocol: (§1) All IC50 measurements we performed by Reaction Biology corporation. Compounds were tested in
(§2) dilution starting at 1 uM. […]
(§3) (RHK(Ac)K(Ac)AMC). IC50 values were calculated using the GraphPad Prism 4 program based on a
(§4) sigmoidal dose-response equation. […]

[2] = molecular target: T2, HDAC3 (Homo sapiens, UniProt O15379); test: HDAC3 enzyme inhibition assay (single point and 10-dose IC50, Reaction Biology); assay type: biochemical
T2 construct: purchased Reaction Biology corporation (contract assay)
Protocol: as §1, §2, §3, §4

[3] = tested on: acetylated tubulin in A549 cells; test: Tubulin acetylation in A549 cells, immunostaining with high content imaging; assay type: cell-based, human; conditions: 24 h
Protocol: (§5) To confirm the observed activities of the selected test compounds against HDAC6, the acetylation status of tubulin in the human lung cancer cell line A549 was investigated by immunostaining combined with automated high content image analysis (see supplementary material for full details). […] The apparent drop in histone acetylation by both compounds above 10 μM is indicative of a potential cytotoxicity at higher concentrations (data not shown).
(§6) Figure 5 Cell-based assessment of HDAC activity and selectivity. Dose and time-dependency of tubulin and histone acetylation by test compounds. A549 cells were treated with (A,B) different concentrations (0–50 µM) of CF011, KNH019 and tubastatin for 24 h or with (C,D) 1 µM over different time intervals before (A,C) tubulin acetylation or (B,D) histone acetylation were automatically quantified using high content imaging. Data represent the average of four independent experiments with four replicate wells/experiments. The statistical significances of effects compared to the untreated control were analysed using Brown–Forsythe and Welch one-way ANOVA analyses using Graph Pad Prism. The significance was set as * 0.05 > p ≥ 0.01, ** 0.01 > p ≥ 0.002. Error bars represent the Standard Error of Mean (SEM). (E) Representative fluorescence images show tubulin acetylation (yellow), histone acetylation (red) and nuclear counterstain (DAPI, blue) after 24 h of exposure to test compounds. Secondary antibodies were detected using excitation/emission filters for CY3 (excitation: 542/27 nm, emission: 597/45 nm), CY5 (excitation: 632/22 nm, emission: 684/25 nm) and DAPI (excitation: 390/18 nm, emission: 435/48 nm), respectively. […]
(§7) S2.2 Cell Culture, Treatment and Immunostaining:
(§8) A549 cells (ATCC® CCL-185™, In Vitro Technologies Pty. Ltd., Victoria, Australia) were cultured in low glucose Dulbecco’s Modified Eagle Media (DMEM, 1 g/L glucose, 0.584 g/L L-glutamine, 3.7 g/L sodium bicarbonate, 10 % fetal bovine serum) under standard conditions (> 90 % humidity, 37 °C temperature, 5 % CO 2). For experiments, 5,000 cells/ well were seeded in 100 µl serum free DMEM in 384 well plates (µCLEAR®, Greiner) and left to adhere for 24 hours before the treatment. Cells were treated with 100 µl of test compound -containing media for up to 24 hours before cells were fixed with 4 % paraformaldehyde (PFA) solution in PBS (10 minutes at room temperature (RT)) and permeabi lized with 50 µl of 0.5 % Triton X -100 in PBS. Subsequently, cells were blocked in PBST (5% fetal bovine serum, 5% bovine serum albumin, 5% goat serum, 0.1% Tween 20 in PBS) before stained with anti - acetylated tubulin (T7451, Sigma Aldrich; 1:1,000) and an ti-acetylated histone antibody (ab47915, Abcam; 1:1,000) overnight at 4 °C. Subsequently, cells were exposed to secondary antibodies (goat anti-mouse Alexa fluor 594 (Invitrogen; 1:10,000) and goat anti -rabbit Alexa fluor 647 (Invitrogen; 1:10,000) in PBST ) and DAPI solution (Invitrogen; 1:10,000 in PBST) before images were acquired.
(§9) Fluorescence images were acquired (10x magnification, 2 -D format) using the InCell 2200 high content imaging system (V7.3, GE Healthcare life sciences) wi th CY3 (excitation: 542/27 nm, emission: 597/45 nm), CY5 (excitation: 632/22 nm, emission: 684/25 nm) and DAPI (excitation: 390/18 nm, emission:
435/48 nm) filters. Two images/well at predefined positions were automatically acquired with 4 replicate wells for each treatment condition/ experiment. At least 3 independent experiments were conducted for each condition. Acquired images were automatically processed using InCarta software (v1.6, GE Healthcare life sciences). All images were manually checked for ar tefacts. Images with less than 30 cells were excluded from the analysis. Excel and GraphPad Prism was used for statistical analysis and graphical representation. Data was expressed as % Relative Fluorescence Units (RFU) […]

[4] = tested on: acetylated histone in A549 cells; test: Histone acetylation in A549 cells, immunostaining with high content imaging; assay type: cell-based, human; conditions: 24 h
Protocol: as §5, §6, §7, §8, §9
435/48 nm) filters. […] Data was expressed as % Relative Fluorescence Units (RFU) […]

[5] = UV/Vis absorption and fluorescence (photophysical properties) in DMSO; assay type: physicochemical
Protocol: S1.6 UV/Vis and Fluorescence Data
UV/Vis analysis was performed on a Cary Eclipse 300 UV/Vis spectrophotometer and fluorescence measurements performed on a Cary Eclipse Fluorescence spectrophotometer. All analysis was performed in 10 mm quartz cuvettes using AR grade DMSO. Relative quantum yields were obtained by comparison to quinine sulfate (фf = 0.58 in 0.1 M H2SO4) with absorbance of samples adjusted so that the absorbance at 340 nm was similar to the reference.
Emission spectra were obtained by excitation at 340 nm. Quantum yield was obtained by use of the following equation and are reported as the average of two samples with error <5%; […]
Where фref is the literature quantum yield of the reference, η is the refractive index of the solvent (H2O = 1.333, DMSO = 1.479) and Is is the integrated fluorescence intensity of the sample with Iref being the same of the reference.
Table S1 – Photophysical properties of selected compounds in DMSO […]
†Average of two samples, ±1%

[6] = average of two independent measurements
[7] = single point, inhibitor 1.0 μM, average of two measurements, ±2%

T2 sequence (O15379 whole entry): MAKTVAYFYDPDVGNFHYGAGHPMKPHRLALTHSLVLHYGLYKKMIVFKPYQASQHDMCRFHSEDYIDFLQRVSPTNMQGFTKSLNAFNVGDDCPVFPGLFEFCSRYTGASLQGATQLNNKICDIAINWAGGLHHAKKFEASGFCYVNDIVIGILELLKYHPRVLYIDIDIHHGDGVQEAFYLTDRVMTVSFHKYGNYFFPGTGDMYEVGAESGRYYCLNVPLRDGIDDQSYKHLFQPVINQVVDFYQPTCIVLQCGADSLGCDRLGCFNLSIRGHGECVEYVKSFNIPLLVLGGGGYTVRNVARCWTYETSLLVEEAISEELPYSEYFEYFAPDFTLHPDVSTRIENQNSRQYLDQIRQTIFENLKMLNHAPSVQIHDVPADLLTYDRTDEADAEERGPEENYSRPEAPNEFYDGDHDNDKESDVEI
T2 sequence (Q9Y618 395-489 partner limits assumed): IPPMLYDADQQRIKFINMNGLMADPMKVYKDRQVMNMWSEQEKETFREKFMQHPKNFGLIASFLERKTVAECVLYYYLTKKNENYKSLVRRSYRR
T1 sequence (Q13547 whole entry): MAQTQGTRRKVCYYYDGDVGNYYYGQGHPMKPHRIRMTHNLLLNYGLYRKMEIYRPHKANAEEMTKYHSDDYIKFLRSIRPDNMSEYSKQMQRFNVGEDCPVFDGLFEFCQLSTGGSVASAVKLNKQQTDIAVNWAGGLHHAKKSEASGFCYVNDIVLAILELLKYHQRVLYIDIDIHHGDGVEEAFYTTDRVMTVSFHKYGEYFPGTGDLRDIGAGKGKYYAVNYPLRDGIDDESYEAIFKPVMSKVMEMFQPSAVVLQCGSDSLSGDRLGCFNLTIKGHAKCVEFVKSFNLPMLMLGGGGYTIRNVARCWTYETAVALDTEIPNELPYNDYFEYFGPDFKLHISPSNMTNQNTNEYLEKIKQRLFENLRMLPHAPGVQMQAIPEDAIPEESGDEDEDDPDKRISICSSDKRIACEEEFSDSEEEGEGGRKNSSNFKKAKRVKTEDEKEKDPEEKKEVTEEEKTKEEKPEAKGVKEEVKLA

- IC50 [1, 6]: 91 ± 6 nM
- Selectivity factor (SF) = HDAC1 IC50/HDAC6 IC50 ([1]; selectivity for HDAC6 over HDAC1): 91
- HDAC1 average enzyme isoform activity (percentage of full enzyme activity) [1, 7]: 36.3%
- IC50 [2, 6]: 64 ± 0.2 nM
- Selectivity factor (SF) HDAC3 against HDAC6 ([2]; selectivity for HDAC6 over HDAC3): 64
- HDAC3 average enzyme isoform activity (percentage of full enzyme activity) [2, 7]: 24.1%
- λabs (absorption maximum) [5]: 343 nm
- λabs (secondary absorption maximum) [5]: 374 nm
- λem ([5]; excitation at 340 nm): 437 nm
- Φf (fluorescence quantum yield) ([5]; relative to quinine sulfate, average of two samples): 0.05
SMILES: O=C(CCCCCN1C(=O)c2cccc3cc(NC(=O)c4ccccc4)cc(c23)C1=O)NO [KNH019]
- Increase of tubulin acetylation compared to untreated cells (up to) ([3]; 0-50 µM, dose-dependent): ~1.5 fold
- Tubulin acetylation in representative immunostaining images ([3]; 10 µM): strongly induce
- Concentration from which tubulin acetylation was significantly increased ([3]; compared to untreated cells): 10^−6 mM
- Histone acetylation in representative immunostaining images ([4]; 10 µM): strongly induce
- Concentration from which histone acetylation was significantly increased ([4]; compared to untreated cells): 10^−2 mM

From PMC8232238 (Cells, 2021)
